Test results from US8828988B2 (Tetraphase Pharmaceuticals, Inc., priority 2009, dated 2014).
≈ marks a conversion by molar mass, not a printed value. Read-outs that look alike come from different tables or passages of the source.

Assays:
[1] = tested on: Staphylococcus aureus SA101, ATCC 29213, MSSA; assay: MIC assay, SA101; assay type: cell-based; settings: Table 8, read-out: MIC S. aureus ATCC 29213
[2] = tested on: Staphylococcus aureus SA161, HA-MRSA, tetracycline-resistant, tet(M); assay: MIC assay, SA161; assay type: cell-based; settings: Table 8, read-out: MIC S. aureus MRSA, tetM
[3] = tested on: Staphylococcus aureus SA158, tetracycline-resistant tet(K); assay: MIC assay, SA158; assay type: cell-based; settings: Table 8, read-out: MIC S. aureus tetK
[4] = tested on: Enterococcus faecalis EF103, ATCC 29212; assay: MIC assay, EF103; assay type: cell-based; settings: Enterococcus faecalis, ATCC29212; Table 8; read-out: MIC E. faecalis ATCC 29212
[5] = tested on: Enterococcus faecalis EF159, tetracycline-resistant, tet(M); assay: MIC assay, EF159; assay type: cell-based; settings: Table 8, read-out: MIC E. faecalis tetM
[6] = tested on: Streptococcus pneumoniae SP106, ATCC 49619; assay: MIC assay, SP106; assay type: cell-based; settings: ATCC49619, Table 8, read-out: MIC S. pneumoniae ATCC 49619
[7] = tested on: Streptococcus pneumoniae SP160, tetracycline-resistant, tet(M); assay: MIC assay, SP160; assay type: cell-based; settings: Table 8, read-out: MIC S. pneumoniae tetM
[8] = tested on: Escherichia coli EC107, ATCC 25922; assay: MIC assay, EC107; assay type: cell-based; settings: ATCC25922, Table 8, read-out: MIC E. coli ATCC 25922
[9] = tested on: Escherichia coli EC155, tetracycline-resistant, tet(A); assay: MIC assay, EC155; assay type: cell-based; settings: Table 8, read-out: MIC E. coli tetA
[10] = tested on: E. faecalis clinical isolates; assay: MIC50, MIC90 and MIC range, panel of clinical isolates (Example 20); assay type: cell-based; settings: 24 isolates, in µg/mL
Experimental: (§1) The assays were run as follows.
(§2) Both values, as well as the MIC range (the lowest and highest MIC value observed for a collection of organisms), were determined for the isolates listed in Table 3.

[11] = tested on: S. aureus clinical isolates; assay: as above; assay type: cell-based; settings: MRSA, 30 isolates; in µg/mL
Experimental: as §1, §2

[12] = tested on: S. pneumoniae clinical isolates; assay: as above; assay type: cell-based; settings: 19 isolates, in µg/mL
Experimental: as §1, §2

[13] = tested on: E. coli DH10B(pBAD-tetK), expressing tet(K); assay: MIC against recombinant E. coli expressing tet(K); assay type: cell-based; settings: for MIC: Escherichia coli
From the text: (§3) Constructs were transformed into E. coli DH10B for expression. Recombinant strains were pre-induced under optimized conditions with L-arabinose prior to use as inocula in CLSI standardized MIC assays.

[14] = tested on: E. coli DH10B(pBAD-tetM), expressing tet(M); assay: MIC against recombinant E. coli expressing tet(M); assay type: cell-based; settings: for MIC: Escherichia coli
From the text: as §3

[15] = tested on: E. coli S30 extract system, coupled in vitro transcription/translation, firefly luciferase readout; assay: In vitro transcription/translation (TnT) assay; assay type: biochemical
[16] = tested on: tet(K) strains of S. aureus; assay: MIC, CLSI methodology, recent clinical isolates (Example 21); assay type: cell-based; settings: Staphylococcus aureus, read-out: MIC against tet(K) strains of S. aureus
Experimental: as §1
(§4) The antibacterial activities of Compounds MIC values were determined according to CLSI methodology. Recent clinical isolates were obtained from Eurofins-Medinet. Antibiotics were obtained from standard commercial sources.

[17] = tested on: tet(M) and tet(S) strains of E. faecalis; assay: as above; assay type: cell-based; settings: Enterococcus faecalis, read-out: MIC against tet(M) and tet(S) strains of E. faecalis
Experimental: as §1, §4

[18] = tested on: tet(M) strains of S. aureus; assay: as above; assay type: cell-based; settings: Staphylococcus aureus, read-out: MIC against tet(M) strains of S. aureus
Experimental: as §1, §4

[19] = tested on: tet(M) strains of S. pneumoniae; assay: as above; assay type: cell-based; settings: Streptococcus pneumoniae, read-out: MIC against tet(M) strains of S. pneumoniae
Experimental: as §1, §4

`CN(C)[C@@H]1C(O)=C(C(N)=O)C(=O)[C@@]2(O)C(O)=C3C(=O)c4c(O)c(NCC(C)(C)CN5CCCC5)nc(Cl)c4C[C@H]3C[C@@H]12` [Compound 108] showed an MIC [1] of 0.25 µg/mL (≈ 0.414 µM), an MIC [2] of 2 µg/mL (≈ 3.31 µM) and an MIC [3] of 0.13 µg/mL (≈ 0.215 µM). It also gave an MIC [4] of 0.5 µg/mL (≈ 0.828 µM), an MIC [5] of 2 µg/mL (≈ 3.31 µM) and an MIC [6] of 0.031 µg/mL (≈ 0.0513 µM). The MIC [7] was 0.25 µg/mL (≈ 0.414 µM), the MIC [8] was 2 µg/mL (≈ 3.31 µM) and the MIC [9] was 8 µg/mL (≈ 13.2 µM). The “MIC Range” value [10] was 0.063-4, the “MIC Range” value [11] was 0.5-8 and the “MIC Range” value [12] was “<=0.016-0.13”. The MIC ([13]; read-out: MIC, TetK Induced) was 2 µg/mL, the MIC ([13]; read-out: MIC, Uninduced) was 4 µg/mL and the “MIC ratio, TetK induced to uninduced” value ([13]; ratio of TetK induced to uninduced MIC) was 0.5. The “Effect of expression of (tet)K on activity” value ([13]; result in words) was “unaffected”, the MIC ([14]; read-out: MIC, TetM induced) was 2 µg/mL and the MIC ([14]; read-out: MIC, Uninduced) was 2 µg/mL. For the same compound, the “Ratio (TetM induced / Uninduced)” value ([14]; ratio of MICs) was 1, the “Effect of expression of (tet)M on activity” value ([14]; result in words) was “minimally affected” and the “TnT IC50” value [15] was 0.6 µg/mL. The “IC50, in vitro transcription/translation system” value ([15]; E. coli S30 extract, luciferase readout) was 0.62 µg/mL (≈ 1.03 µM), the MIC [16] was ≤ 1 µg/mL and the MIC [17] was ≤ 4 µg/mL. The MIC [18] was ≤ 8 µg/mL and the MIC [19] was ≤ 0.25 µg/mL.
